Test results published in patent US20130053323A1, “METHODS AND USE RELATED TO HUMANIN AND HUMANIN-LIKE PEPTIDES” (priority 2009, published 2013).
Entries after “also recorded” stand apart in the source; their conditions may differ.

Experiments:
IL-6 = IL-6 ELISA in culture medium of LPS-treated ATDC5 chondrocytes; type: cell-based, mice; details: LPS 10 μg/ml 24 hrs; combined Dexa and HNG (10 nM)
Method: Mice chondrocyte cell line ATDC5 (1×10^6), was cultured in DMEM/Ham's F12 (Invitrogen) supplemented with 5% FCS, 10 μg/ml human transferrin and 3×10^−8 M (30 nM) sodium selenite until confluent (day 6), as previously reported (Owen, Miner et al. 2007). Thereafter, differentiation was induced by the addition of insulin (10 μg/ml; Sigma) and ascorbic acid (20 μg/ml) to the maintenance medium (differentiation medium). Incubation was at 37° C. in a humidified atmosphere of 95% air/5% CO2. The culture medium was changed every second day. On day 6, lipopolysacharide (LPS) 10 μg/ml […] Dexa (1 μM) and HNG (10 nM, S14G) were added in DMEM/Ham's F12 only and cells were incubated further 24 hrs. Next day, the cell culture medium was collected and analyzed for Intraleukin-6 (IL-6) cytokine levels by using commercially available ELISA kit (R&D Systems, Minneapolis, Minn.) according to instructions provided from manufacturer.
FIG. 2C. […] Therefore, ATDC5 chondrocytes (mice) were cultured and treated with lipopolysacharide (LPS, 10 μg/ml) for 24 hrs to induce inflammation.

FVB mice = experiment: Dexa-induced growth retardation in FVB mice (tibia length, nose to anus length); type: in vivo; details: HNG 1 μg/mice/day i.p. prior to Dexa 20 μg/mice/day; for rescue from Dexa-induced growth retardation (nose to anus length): 4 weeks
Method: Four weeks old female mice FVB strain were obtained from Charles-River, Germany. The mice were kept in animal facility under a 12-h light, 12-h dark schedule with water ad libitum. After an adaptation period, mice were injected with Dexa dissolved in saline (20 μg/mice) subcutaneously in the neck every day for 1 week (short-term). Whereas, HNG (S14G) dissolved in saline (1 μg/mice) was injected intraperitoneally, 45 minutes prior to Dexa injection. The vehicle group received saline only. After one week of treatment/injections, animals were sacrificed and the back legs (femur and tibia) were collected. The skin and muscle from the tibia was removed and final length of tibia was measured by using electronic digital caliper as reported previously (Zaman, Menendez-Benito et al. 2007).
In another study, four weeks old female mice FVB strain (Charles-river, Germany) were injected with Dexa dissolved in saline (20 μg/mice) subcutaneously in the neck every day for four week (long-term). Whereas, HNG (S14G) dissolved in saline (1 μg/mice) was injected intraperitoneally, 45 minutes prior to Dexa injection. The vehicle group received saline only. The total body length (nose to anus) was measured (centimeters, cm) manually (blinded, the cadges were coded on the day of measurment), every week. After 4 weeks of treatment, animals were sacrificed by inhalation of CO2, tissue samples (both left and right leg) were collected for subsequent analysis.
HNG injections were given […] prior to Dexa injections. […] After this, we next asked whether HNG (S14G) has any protective effects on bone growth after long-term treatment with Dexa (FIG. 3A). To investigate this, we treated mice for 4 weeks (group 2) with Dexa (20 μg/mice/day) and HNG (1 μg/mice/day). […] In FIG. 3B, total growth of the animals, nose to anus length (cm, manually) was analyzed in vehicle, Dexa, HNG (S14G) and Dexa/HNG (S14G) treated animals after four weeks of injections. **p<0.01 by 1-way ANOVA analyses, n=9-10/animals/group).

type-X collagen = experiment: Immunohistochemistry for type-X collagen in tibia growth plate; type: in vivo, mice
Method: Four weeks old mice (female, FVB) were injected with Dexa dissolved in saline (20 μg/mice) subcutaneously in the neck every day for four week. Whereas, HNG (S14G) dissolved in saline (1 μg/mice) was injected intra-peritoneally, 45 minutes prior to the Dexa injection. The vehicle group received saline only. The femur and tibia bones were dissected out and fixed in 4% formalin for 24 hrs, followed by decalcification in 10% EDTA and embedded in paraffin blocks. Five-micrometer-thick sections were prepared from these paraffin blocks. After one wash in dH2O, endogenous peroxidase activity was reduced by incubation in 3% hydrogen peroxide in methanol for 5 min at room temperature. The sections were additionally treated with 5 mg/ml hyaluronidase (Sigma-Aldrich, Inc, Steinheim, Germany) for 30 min at 37° C., then blocked in 3% horse serum and incubated overnight at +4° C. with anti-collagen type-X primary antibody (Quartett GmbH, Berlin, Germany; 1:30). Secondary anti-mouse biotinylated antibody (1:300) was purchased from DakoCytomation A/S (Glostrup, Denmark). Sections were washed in TBS, incubated with avidin-conjugated peroxidase (Vector Laboratories) for 60 min, and the resulting peroxidase activity was detected using a DAB Kit (Vector Laboratories). […] Minimum 4 measurements were taken from each sample and measured blindly. n=4-5/group, **p<0.01. […]

[1] = system: apoptosis inducing factor (AIF) and BAX; experiment: Western immunoblotting of pro-apoptotic proteins in C5.18 chondrocytic cell line; type: cell-based, rat; details: 100 nM HNG/1000 nM bortezomib, 6hrs
Method: Western immunoblotting to study protein expression was performed in the rat C5.18 chondrocytic cell line after treatment with 1000 nM CT (bortezomib) or 100 nM humanin analog HNG (S14G)/1000 nM CT (bortezomib (Btz)) for 6hrs. […] By adding humanin analog HNG (S14G), the up-regulation and activation of the two pro-apoptotic proteins were suppressed. […] As an internal control the house-keeping gene, GAPDH (35 kDa) was used. The experiment was repeated twice.

[2] = system: neuroblastoma (SK-N-BE(2)) xenograft; experiment: Tumor volume in neuroblastoma xenograft in NMRI nude mice; type: in vivo, human; details: bortezomib + HNG i.p., until day 13

S14G-HN (MAPRGFSCLLLLTGEIDLPVKRRA) [HNG (S14G)]
effect on the anti-inflammatory effect of Dexa (IL-6 levels) (IL-6): did not alter the anti-inflammatory effects of Dexa
rescue from Dexa-induced growth retardation (tibia length) (FVB mice; 1 week): protected mice from Dexa-induced growth retardation; also recorded: rescued mice from Dexa-induced growth retardation
rescue from Dexa-induced growth retardation (nose to anus length) (FVB mice): completely rescued mice from Dexa-induced growth retardation
rescue from Dexa-induced growth retardation (nose to anus length) (FVB mice; listed as HNG (314G)): protected mice from Dexa-induced growth retardation
type-X collagen expression (height) (type-X collagen; Dexa 20 μg/mice + HNG 1 μg/mice every day for four weeks, vs Dexa alone, p<0.01): significantly increased
type-X collagen expression (height) (type-X collagen; HNG only, 1 μg/mice every day for four weeks): also increased
bortezomib-induced up-regulation and activation of AIF and BAX [1]: suppressed
interference with anti-cancer effect of bortezomib (tumor volume) [2]: does not interfere with the anti-cancer effect
